What was measured:
mice [1] = test: Forced swim test; assay type: in vivo; conditions: IMI 20 mg/kg ip; p < 0.05
Protocol: The forced swim test was carried out according to the method described by Porsolt et al. to assess antidepressant properties of PTE. Mice were placed individually in a glass cylinder (25 cm high; 10 cm diameter) containing tap water to a depth of 11 cm. Water was maintained at temperature of 23–25 °C. Mice were permitted to swim for 6 min and duration of their immobility was recorded during the last 4 min of the test by a trained experimenter who was blinded to the treatment. Immobility time was recorded using cumulative stopwatches. Mouse was considered to be immobile when it was floating in the water without struggling and making no attempts to escape, it was making only these movements necessary to keep its head above the water. After each trial, the water in the cylinder was replaced with fresh water. Experimental groups consisted of 10 animals.
Data obtained in the forced swim test were expressed as the mean (in s) + SEM immobility time in each experimental group. Results were analyzed by one-way ANOVA.

rats = tested on: rats; set-up: method as in PMID 24717328; conditions: acute and chronic administration; cited from earlier work
MES seizures in mice = tested on: MES seizures in mice; set-up: method as in PMID 27600732; conditions: cited from earlier work
[2] = tested on: 6 Hz psychomotor seizures in mice; set-up: method as in PMID 27600732; conditions: cited from earlier work
[3] = tested on: PTZ-induced seizures in rats; conditions: PTZ test in rats; cited from earlier work
mice [4] = test: Chimney test; assay type: in vivo; conditions: 15 min before test
Protocol: The chimney test was performed to evaluate influence of PTE on motor coordination in mice. During the test mice had to climb backwards up the plastic transparent cylinder (inner diameter 3 cm and length 30 cm) with gravelly inside. The inability of mice to escape from the cylinder within 60 s was considered as an motor impairment. Results obtained in the test were presented as percent of impaired mice in groups of 10–12 animals and were compared with the Fisher’s exact probability test.

[5] = tested on: maximal electroshock seizures in mice; test: Maximal electroshock seizure threshold (MEST) test; assay type: in vivo; conditions: VPA 150 mg/kg ip
Excerpt: Seizures in the MEST test were evoked by applying a sine-wave alternating current (maximal output voltage 500 V, 50 Hz for 0.2 s) generated by constant current stimulator (Rodent Shocker, Type 221, Hugo Sachs Elektronik, Freiburg, Germany). The stimulation was delivered by saline-socked transcorneal electrodes. Before the stimulation 1% solution of tetracaine hydrochloride was applied into animals’ eyes for local anesthesia. During the stimulation animals were restrained manually and immediately after the stimulation they were placed in the Plexiglas box for observation. The endpoint evaluated in the test was the maximal electroconvulsion which was defined as extension of the hindlimbs above a 90° angle to the torso of animal.
The threshold for maximal electroshock was determined according to the up-and-down method described by Kimball et al.. The mice in the experimental group were subjected to the stimuli with different current intensities (range of 8–30 mA) which changes in 0.06-log steps. If stimulated mouse respond with seizures, the next mouse in the group was stimulated with current of intensity 0.06-log step lower than the previous one. […] Groups of 20 stimulated animals were used to calculate the threshold current strength (CS50 in mA; the current strength which induces tonic hindlimb extension in 50% of the tested animals) with SEM.
CS50 values were compared with one-way ANOVA followed by the Tukey’s multiple comparison test.

mice [6] = test: Grip-strength test; assay type: in vivo; conditions: 15 min before test
Protocol: The acute effect of PTE on the skeletal muscles strength in mice was determined in the grip strength test. The apparatus for this test (BioSeb, Chaville, France) consisted of a steel wire grid (8 × 8 cm) connected to an isometric force transducer. Each mouse was lifted by tail and allowed to grasp the grid with its forepaws and then it was gently pulled backward until its released the grid. The maximal force in newtons (N) exerted by mouse before leaving the grid was recorded. The mean of three consecutive measurements for each animal was calculated and normalized to body weight (mN/g).
Experimental groups consisted of 12 animals. Results obtained in the grip-strength test were compared using one-way ANOVA followed by the Tukey’s post-hoc multiple comparison test.

[7] = tested on: PTZ-induced seizures in mice; test: Timed iv PTZ seizure threshold test in mice; assay type: in vivo; conditions: VPA 150 mg/kg ip, 15 min before test
Protocol: Each mice was placed in the cylindrical restrainer and the needle (27G, 3/4 in., Sterican®, B. Braun Melsungen AG, Melsungen, Germany) was injected into the lateral tail vein. The needle was attached by the polyethylene drain (PE20RW, Plastic One Inc. Roanoke, VA, USA) with the syringe containing 1% solution of PTZ (Sigma–Aldrich, St. Louis, MO, USA) in water and the syringe was located in the infuse pomp (model Physio 22, Hugo Sachs Elektronik–Harvard Apparatus GmbH, March-Hugstetten, Germany). The correct placement of the needle in the vein was confirmed based on the presence of the blood in the drain and the needle was protected against displacement by a peace of adhesive tape. Following injection, mice were took out from the restrainer and placed in the Plexiglas box for observation. The PTZ solution was infused into the vein at a constant rate of 0.2 ml/min. The time intervals from the start of infusion of PTZ solution to the beginning of three kinds of seizures, i.e., the first myoclonic twitch, generalized clonus with loss of the righting reflex and forelimb tonic extension, were noted. Infusion of PTZ solution was stopped immediately after onset of the tonic seizures, which usually were lethal. If animal survived the test, it was euthanized immediately. The threshold dose of PTZ (in mg/kg body weight) for each kind of seizures was calculated according to the following formula: PTZmg/kg=infusion durations×infusion rateml/s×PTZ concentrationmg/ml/weightkg
Experimental groups consisted of 9–13 animals. The data obtained in the iv PTZ test are presented as the threshold dose of PTZ (in mg/kg) + standard error of the mean (SEM) needed to elicit the respective kind of seizures. The data were analyzed by one-way ANOVA followed by the Tukey’s multiple comparison test. Statistical significance was noted when p values were equal or lower than 0.05.

[8] = tested on: 6 Hz-induced psychomotor seizures in mice; test: 6 Hz psychomotor seizure threshold test; assay type: in vivo; conditions: VPA 50 mg/kg ip, 15 min before test; 95% confidence limits in brackets
Excerpt: Psychomotor (limbic) seizures were induced by transcorneal stimulation (6 Hz, 0.2 ms rectangular pulse, 3 s duration) generated by a Grass S48 stimulator coupled with a constant current unit CCU1 (both from Grass Technologies, West Warwick, RI, USA). Before stimulation a drop of ocular anesthetic, 1% tetracaine hydrochloride solution, was applied into the animals’ corneas. The electrodes were soaked in saline to ensure the good electrical contact. During the stimulation animals were restrained manually and immediately after the stimulation were placed in a Plexiglas box for observation of presence or absence of the psychomotor seizures. These seizures were characterized by immobilization or stun, often associated with rearing, forelimb clonus, twitching of vibrissae and elevated tail (Straub-tail), lasting at least 10 s from the stimulation. Lack of the above symptoms or their cessation within 10 s from the stimulation was considered as absence of seizure activity.
In the present study two 6 Hz-induced psychomotor seizure tests were performed: (1) the 6 Hz psychomotor seizure threshold test which employed stimulation at varied current intensities, and (2) the 6 Hz psychomotor seizure test with supramaximal stimulation at 32 mA and 44 mA.
In the 6 Hz psychomotor seizures threshold test, threshold current intensity (CS50 in mA) was estimated in groups of 20 animals according to the above mentioned up-and-down method.

CN(C)CCCN1c2ccccc2CCc2ccccc21 [IMI, imipramine, reference compound]
immobility time vs control (mice [1]): Statistically significant difference

Oc1ccc(/C=C/c2cc(O)cc(O)c2)cc1 [RES, resveratrol]
immobility time in the forced swim test (rats): decreased immobility time | anticonvulsant activity in the MES test (MES seizures in mice): showed significant anticonvulsant activity neither in the MES nor 6 Hz psychomotor seizure tests | anticonvulsant activity in the 6 Hz psychomotor seizure test [2]: showed significant anticonvulsant activity neither in the MES nor 6 Hz psychomotor seizure tests | duration of clonic seizures [3]: reduced the duration | incidence of the generalized tonic-clonic seizures [3]: decreased incidence

CCCC(CCC)C(=O)O [VPA, valproic acid, reference compound]
Impairment of motor coordination (percentage of animals) (mice [4]; VPA 50 mg/kg ip): 0% | Impairment of motor coordination (percentage of animals) (mice [4]; VPA 150 mg/kg ip): 0% | CS50 (seizure threshold) ([5]; 15 min before test, 95% confidence limits in brackets): 14.13 (13.27–15.04) mA | increase of seizure threshold vs negative control ([5]; p < 0.001): ~ 49% | Neuromuscular strength (mice [6]; VPA 50 mg/kg ip): 31.12 ± 1.20 mN/g | Neuromuscular strength (mice [6]; VPA 150 mg/kg ip): 25.36 ± 0.92 mN/g | threshold for the first myoclonic twitch vs negative control ([7]; p < 0.001): Statistically significant increases | increase of threshold for generalized clonic seizures vs negative control ([7]; p < 0.01): over 45% | threshold for tonic forelimb extension vs negative control ([7]; p < 0.01): Statistically significant increase | CS50 (psychomotor seizure threshold) [8]: 15.97 (15.13–16.85) mA

From paper PMC6482291, “Anticonvulsant Activity of Pterostilbene in Zebrafish and Mouse Acute Seizure Tests” (Neurochemical Research, 2019)
